In patent US6413967B1, “Inhibition of novel calcium entry pathway in electrically non-excitable cells acting as an anti-proliferative therapy” (The University of Virginia Patents Foundation, priority 1995, dated 2002):
pIC50: −log10 of the molar value.

Assays:
[1] = test system: VG Ca^2+ current in Jurkat cells; experiment: perforated patch clamp, voltage gated (VG) Ca2+ current; format: cell-based, human; conditions: Homo sapiens, 10 μM NDGA
Description: (§1) All recordings were performed using the perforated patch method (Horn et al, J. Gen. Physiol. (1988) 92:145) of the gigaseal patch clamp technique (Hammil et al, Pflugers Arch (1981) 391:85) with microelectrodes of 5-10 megohm series resistance. In all solutions for voltage clamp, K^+ was replaced with Cs^+ to block outward K^+ currents (Fox et al, J. Physiol. (Lond.) (1987) 392:149). The bath solution contained (in mM): NaCl, 155; CsCl, 4.5; CaCl2, 2; MgCl2, 1; D-glucose, 5; HEPES, 10 (pH 7.4 with NaOH). The pipette solution contained (in mM): CsCl, 55; Cesium methanesulfonate, 70; CaCl2, 1; MgCl2, 7; HEPES, 10 (pH 7.3 with NaOH). Nystatin was made as a stock solution of 6 mg/100 μl DMSO, and 2 μl of the stock was added to 1 ml of the pipette solution for use. Both pipette and bath solutions were 290-300 mOsm. Experiments were performed on cells at room temperature using the Axopatch-1D patch clamp (Axon Instruments, Foster City, Calif.) after correction of junction potentials and leak subtraction. Records were low-pass filtered at 500 Hz, and the data were collected, stored and analyzed using the pClamp software program (Axon Instruments). For the non-voltage gated current traces, data is presented either as the tracing from a chart recorder or from the digital data in which the current was measured at 5 second intervals and plotted as individual points.

Jurkat T cells = experiment: Jurkat cell proliferation, tetrazolium dye; format: cell-based, human; conditions: 48 hours
Description: The effect of various drugs on the proliferation of Jurkat T cells, MDA-468 human breast cancer cells and PC3 human prostate cancer cells was determined by incubating the cells with the indicated concentrations of drug for 48 hours. The number of viable cells remaining at the end of the incubation period was evaluated using the procedure outlined in Example 4.
Cells are plated in triplicate in a 96-well flat-bottomed plate (Jurkat: 5e4 cells/well in RPMI-1640 plus 5% fbs; MDA468: 2.5e4 per well in DMEM plus 5% fbs and 11 μg/ml insulin) in the absence (control) or presence of drug at 3, 10, 30, and 100 μM. An additional control of 100 μM drug in RPMI-1640 plus 5% fbs or DMEM plus 5% fbs and 11 μg/Ml insulin with no cells is included with each run to control for possible drug interactions with the dye. The plate is then placed in a 5% CO2 37° C. incubator for 44 to 48 hours. 20 μl of dye solution containing a tetrazolium dye (3-(4,5-dimethylthiazol-2-yl)-5-(3-carboxymethoxyphenyl)-2-(4-sulfophenyl)-2H-tetrazolium, Owen's reagent) plus coupling reagent (phenazine methosulfate) is added to each well, the plate is returned to the incubator, and the absorbance at 490 nm is read using an ELISA plate reader 3 to 4 h (Jurkat cells) or 2 to 3 h (MDA-468 cells) later. All data are presented as percent of control (no drug addition). With this protocol, it is possible to determine the effect of 5 drugs at 4 concentrations in a single 96-well plate as outlined below: […]

[2] = test system: IL-2 production by Jurkat cells; experiment: interleukin-2 production with CT-EV bioassay; format: cell-based, human
Description: Jurkat cells were suspended at a concentration of 2×10^6 cells/ml in serum-free RPMI-1640 containing 100 U/ml penicillin and 100 μg/ml streptomycin. Cells were treated for 15 min with the appropriate compound to be tested prior to stimulation with 1 μg/ml PHA plus 10 nM PDB (calcium-independent) or with PHA alone (calcium dependent). The cells were then incubated for 2 h at 37° C. Following the 2 h stimulation period, the cells were washed twice with RPMI-1640 supplemented with 5% FBS with 5 min incubations between washes and were resuspended at 2×10^6 cells/ml. The cell suspensions were placed in wells of 24 well plates and were incubated at 37° C. for 24 h. At the end of the incubation, the suspensions were collected, the cells were pelleted and the supernatant was stored at 4° C. for later assay for IL-2 levels. […] Standard curves were generated by addition of known amounts of recombinant human IL-2 (BioWhittaker) to allow determination of IL-2 content in each sample. Plates were then incubated at 37° C. for 48 h. To determine proliferation of CTEV cells, 1 μCi of [^3H]-Thymidine (6.7 Ci/mmol; New England Nuclear) was added to each well for the final 16 hours of the assay and at 48 h the cells were harvested and incorporated ^3H was counted by liquid scintillation counting.

[3] = test system: NVG current in Jurkat cells; experiment: perforated patch clamp, non-voltage gated (NVG) current; format: cell-based, human; conditions: membrane potential −60 mV, 300 nM thapsigargin, amiloride 100 μM, MnCl2 300 μM, NiCl2 1 mM, W-7 30 μM, NDGA 10 μM
Description: as §1

[4] = test system: [Ca^2+]i in MDA-468 cells; experiment: EGF receptor-stimulated Ca2+ influx in MDA-468 cells; format: cell-based, human; conditions: effect the same post- and pre- EGF receptor stimulation
Description: MDA468 cells are incubated with either indo-1 or the combination of fura-red/fluo-3 for 1 hour while still adherent in the maintenance flask in DMEM plus 5% fbs and 1 μg/ml insulin. Cells are removed by gentle scraping and washed three times in buffer A containing 1% charcoal stripped fbs (Nelson et al, Br. J. Cancer (1991) 63:933). The cells are then suspended to a final concentration of 1e6/ml and used as above in the SLM. For the human breast cancer cells, Ca^2+ entry is stimulated by the addition of 25 ng/ml EGF, rather than the antibody used above.

human PBMC = experiment: lymphocyte proliferation, 3H-thymidine incorporation; format: cell-based
Description: Human PBMC were isolated from peripheral blood obtained from healthy donors. Cells were washed twice and were placed in triplicate wells at a concentration of 1×10^5 cells/ml in serum-free RPMI-1640 supplemented with 100 U of both penicillin and streptomycin. Drug treatments were added 15 minutes before stimulation of the cells and were present throughout the 1 hour stimulation period. Stimulation by mitogen (1 μg/ml PHA) in combination with 10 nM phorbol dibutyrate (PDB) was carried out for 1 hour at 37° C. Cells were subsequently washed 3 times with RPMI and were resuspended at a concentration of 1×10^5 cells/ml in RPMI-1640 supplemented with 5% FBS and 100 U/ml of penicillin and 100 μg/ml streptomycin. For the 48 hour proliferation phase, cells were cultured with (Ca^2+-independent proliferation) or without (Ca^2+-dependent proliferation) 10 nM PDB. 1 μCi of [^3H]-Thymidine (6.7 Ci/mmol; New England Nuclear, Boston, Mass.) was added to each well for the final 16 hours of the assay and at 48 h the cells were harvested and incorporated ^3H was counted by liquid scintillation counting.

CC(Cc1ccc(O)c(O)c1)C(C)Cc1ccc(O)c(O)c1 (stereo not drawn) [NDGA, 4,4′-(2,3-dimethyl-1,4-butanediyl)bis[1,2-benzenediol]]
inhibition at 10 µM [1]: ~70%
T cell PROLIF (Jurkat T cells): ↓
effect on IL-2 secretion, Ca^2+-dependent stimulation [2]: suppressed
effect on IL-2 secretion, stimulus not initially requiring extracellular Ca^2+ [2]: little effect
effect on the thapsigargin-induced NVG current [3]: no effect
MDA [CA^2+]i [4]: ↓
pIC50 (human PBMC; Ca^2+-dependent protocol (PHA/PDB 1 h, then medium 48 h), n=6, read-out: IC50 for inhibition of proliferation): ~5.52
effect on Ca^2+-independent proliferation (human PBMC; PHA/PDB 1 h then PDB 48 h): no effect
effect on Ca^2+-dependent proliferation (human PBMC; PHA/PDB 1 h then medium alone 48 h): inhibited proliferation
